Experimental data reported in ChEMBL document CHEMBL1159284, “A Short Enantioselective Synthesis of a Biologically Active Compound from Persea americana” (J Nat Prod, 1995).

Tests used:
[1] = system: Mus musculus; assay: Toxicity in lactating mouse assessed as widespread mammary gland necrosis at 50 to 100 mg/kg; type: organism-based; design: dose 50-100 mg/kg; details: in vivo
[2] = system: Mus musculus; assay: Toxicity in lactating mouse assessed as widespread mammary gland necrosis at 200 mg/kg; type: organism-based; design: dose 200 mg/kg; details: in vivo

SMILES	Activity [1]	Activity [2]
CCCCC/C=C\C/C=C\CCCCCCCC(=O)C[C@@H](O)COC(C)=O	Active	–
CCCCC/C=C\C/C=C\CCCCCCCC(=O)C[C@H](O)COC(C)=O	–	Not Active
